Consider one molecule from patent publication US20250367233A1, “NOVEL PHARMACEUTICAL COMPOSITION CONTAINING IRON AND MEGLUMINE” (priority 2024, published 2025).

This data set is described as follows: Solubility of ferric meglumine / meglumine in solvents.

For `CNC[C@H](O)[C@@H](O)[C@H](O)[C@H](O)CO` [Meglumine, N-Methyl-D-glucamine], the solubility in water result is given as “soluble”.
